Experimental data taken from patent US5491216A, “Tri-arginine insulins” (Eli Lilly and Company, priority 1993, dated 1996).

Columns and labels:
[1] = tested on: New Zealand White rabbits; test: Hypoglycemic activity after subcutaneous injection in fasted rabbits (blood glucose, percent of original); format: in vivo, rabbit; conditions: for Percent of Original Blood Glucose: added zinc 0 mg/ml, 0.2 U/kg s.c., 40 U/ml, n = 10 rabbits
Procedure: Solutions were prepared containing various amounts of zinc (0-2.4 mg/ml) in the form of zinc chloride. Glacial acetic acid was used to solublize each of the solutions at a final pH range of pH 4-6.
New Zealand White rabbits, mostly female, all weighing 0 2.7-4 kg, 0.5-4 years of age and fasted 16 hours prior to administration of sample were used for testing.
At various times, 100 μl volumes of blood were obtained from the marginal ear veins, mixed with 900 μl volumes of anticoagulant (EDTA-sodium fluoride) and analyzed for glucose content. The glucose values were standardized to reflect percent of original blood glucose measured prior to sample injection.

[2] = standardized value used in the formula for test solutions; cited from earlier work

Row | Substance | Percent of Original Blood Glucose ([1]; 1 hour after injection) [%] | Percent of Original Blood Glucose ([1]; 2 hours after injection) [%] | Percent of Original Blood Glucose ([1]; 4 hours after injection) [%] | Percent of Original Blood Glucose ([1]; 6 hours after injection) [%] | hypoglycemic activity ([1]; result in words, animal model) | standardized value (potency per mg protein) [2] [U/mg]
1 | Des(64) HPI: split(64) proinsulin wherein Lys-64 is removed | 63.1 | 70.5 | 90.6 | 90.0 | hypoglycemic activity of its own | 
2 | human insulin: natural human insulin, reference for biopotency |  |  |  |  |  | 28.85
